Data as given in the supplement of paper PMC13207355.

Experiments:
Details in all cases: exposure time: 72 h
[1] = test system: E13 (patient-derived glioblastoma stem cells of classical subtype); assay: surviving fraction (nuclei count normalised to DMSO); higher = more cells surviving (less toxic)
[2] = test system: E21 (patient-derived glioblastoma stem cells of mesenchymal subtype); assay: as above
[3] = test system: E28 (patient-derived glioblastoma stem cells of classical subtype); assay: as above
[4] = test system: E31 (patient-derived glioblastoma stem cells of proneural subtype); assay: as above
[5] = test system: E34 (patient-derived glioblastoma stem cells of proneural subtype); assay: as above
[6] = test system: E57 (patient-derived glioblastoma stem cells of mesenchymal subtype); assay: as above
[7] = test system: FT3469 (normal neural stem cell line); assay: as above
[8] = test system: E13; assay: phenotypic distance (Euclidean, principal components) from DMSO controls (arbitrary units); higher = stronger morphological change
[9] = test system: E21; assay: as above
[10] = test system: E28; assay: as above
[11] = test system: E31; assay: as above
[12] = test system: E34; assay: as above
[13] = test system: E57; assay: as above
[14] = test system: FT3469; assay: as above
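Wherever phenotypic distance (Euclidean, principal components) from DMSO controls is given: cell Painting imaging in 384-well plates, CellProfiler features reduced to at least 20 principal components, Euclidean distance versus same-plate DMSO vehicle wells (0.1% v/v), median over six images per well.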
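Wherever surviving fraction (nuclei count normalised to DMSO) is given: nuclei counted by high-content imaging of Hoechst-stained cells in laminin-coated 384-well plates, relative to 0.1% DMSO vehicle wells, with staurosporine as cell-death control.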

CCCCCCCCCCCCCCCC[N+](C)(C)CCN(Cc1ccc(OC)cc1)c1ncccn1 [Thonzonium bromide]
Details | phenotypic distance | surviving fraction
[1], 4.1 nM | – | 1.04
[1], 12.3 nM | – | 0.969
[1], 37 nM | – | 0.906
[1], 111.1 nM | – | 0.816
[1], 333.3 nM | – | 0.606
[1], 1000 nM | – | 0.555
[1], 3000 nM | – | 0.19
[2], 4.1 nM | – | 0.966
[2], 12.3 nM | – | 1.03
[2], 37 nM | – | 1.03
[2], 111.1 nM | – | 0.987
[2], 333.3 nM | – | 0.962
[2], 1000 nM | – | 0.854
[2], 3000 nM | – | 0.00843
[3], 4.1 nM | – | 1.08
[3], 12.3 nM | – | 0.936
[3], 37 nM | – | 1.09
[3], 111.1 nM | – | 1.01
[3], 333.3 nM | – | 0.814
[3], 1000 nM | – | 0.696
[3], 3000 nM | – | 0.00389
[4], 4.1 nM | – | 1.16
[4], 12.3 nM | – | 1.1
[4], 37 nM | – | 1.09
[4], 111.1 nM | – | 0.966
[4], 333.3 nM | – | 0.882
[4], 1000 nM | – | 0.731
[4], 3000 nM | – | 0.034
[5], 4.1 nM | – | 1.03
[5], 12.3 nM | – | 0.954
[5], 37 nM | – | 1.04
[5], 111.1 nM | – | 0.965
[5], 333.3 nM | – | 0.876
[5], 1000 nM | – | 0.699
[5], 3000 nM | – | 0.0452
[6], 4.1 nM | – | 0.925
[6], 12.3 nM | – | 1.04
[6], 37 nM | – | 1.04
[6], 111.1 nM | – | 1.04
[6], 333.3 nM | – | 1.13
[6], 1000 nM | – | 1.01
[6], 3000 nM | – | 0.00426
[7], 4.1 nM | – | 0.999
[7], 12.3 nM | – | 0.934
[7], 37 nM | – | 0.968
[7], 111.1 nM | – | 0.955
[7], 333.3 nM | – | 0.924
[7], 1000 nM | – | 0.859
[7], 3000 nM | – | 0.00702
[8], 4.1 nM | 0.516 | –
[8], 12.3 nM | 0.581 | –
[8], 37 nM | 0.657 | –
[8], 111.1 nM | 1.02 | –
[8], 333.3 nM | 1.87 | –
[8], 1000 nM | 1.97 | –
[8], 3000 nM | 5.26 | –
[9], 4.1 nM | 0.872 | –
[9], 12.3 nM | 0.488 | –
[9], 37 nM | 0.498 | –
[9], 111.1 nM | 0.528 | –
[9], 333.3 nM | 1.11 | –
[9], 1000 nM | 1.7 | –
[9], 3000 nM | 15.4 | –
[10], 4.1 nM | 0.34 | –
[10], 12.3 nM | 0.451 | –
[10], 37 nM | 0.622 | –
[10], 111.1 nM | 1.04 | –
[10], 333.3 nM | 0.781 | –
[10], 1000 nM | 1.5 | –
[10], 3000 nM | 13.5 | –
[11], 4.1 nM | 0.672 | –
[11], 12.3 nM | 0.609 | –
[11], 37 nM | 0.797 | –
[11], 111.1 nM | 1.23 | –
[11], 333.3 nM | 1.32 | –
[11], 1000 nM | 1.09 | –
[11], 3000 nM | 9.07 | –
[12], 4.1 nM | 0.779 | –
[12], 12.3 nM | 0.535 | –
[12], 37 nM | 0.676 | –
[12], 111.1 nM | 0.729 | –
[12], 333.3 nM | 1.9 | –
[12], 1000 nM | 1.38 | –
[12], 3000 nM | 10.2 | –
[13], 4.1 nM | 0.446 | –
[13], 12.3 nM | 0.566 | –
[13], 37 nM | 0.663 | –
[13], 111.1 nM | 1.07 | –
[13], 333.3 nM | 1.33 | –
[13], 1000 nM | 1.72 | –
[13], 3000 nM | 9.5 | –
[14], 4.1 nM | 0.743 | –
[14], 12.3 nM | 3.16 | –
[14], 37 nM | 0.638 | –
[14], 111.1 nM | 0.6 | –
[14], 333.3 nM | 0.582 | –
[14], 1000 nM | 0.946 | –
[14], 3000 nM | 11.4 | –

Clc1ccc(C(Cn2ccnc2)OCc2ccsc2Cl)c(Cl)c1 (stereo unspecified) [Tioconazole]
Details | phenotypic distance | surviving fraction
[1], 4.1 nM | – | 0.996
[1], 12.3 nM | – | 0.959
[1], 37 nM | – | 1.02
[1], 111.1 nM | – | 0.98
[1], 333.3 nM | – | 0.992
[1], 1000 nM | – | 1.01
[1], 3000 nM | – | 0.857
[2], 4.1 nM | – | 1.05
[2], 12.3 nM | – | 1.01
[2], 37 nM | – | 0.998
[2], 111.1 nM | – | 1.03
[2], 333.3 nM | – | 1
[2], 1000 nM | – | 0.876
[2], 3000 nM | – | 0.887
[3], 4.1 nM | – | 1.06
[3], 12.3 nM | – | 1.11
[3], 37 nM | – | 1.05
[3], 111.1 nM | – | 1.13
[3], 333.3 nM | – | 1.03
[3], 1000 nM | – | 1.02
[3], 3000 nM | – | 0.843
[4], 4.1 nM | – | 0.857
[4], 12.3 nM | – | 0.993
[4], 37 nM | – | 1.08
[4], 111.1 nM | – | 1.11
[4], 333.3 nM | – | 0.972
[4], 1000 nM | – | 1.02
[4], 3000 nM | – | 0.969
[5], 4.1 nM | – | 1.14
[5], 12.3 nM | – | 0.871
[5], 37 nM | – | 0.929
[5], 111.1 nM | – | 0.959
[5], 333.3 nM | – | 0.947
[5], 1000 nM | – | 0.894
[5], 3000 nM | – | 0.776
[6], 4.1 nM | – | 0.962
[6], 12.3 nM | – | 0.998
[6], 37 nM | – | 0.997
[6], 111.1 nM | – | 1.04
[6], 333.3 nM | – | 0.973
[6], 1000 nM | – | 0.922
[6], 3000 nM | – | 0.988
[7], 4.1 nM | – | 0.871
[7], 12.3 nM | – | 1.12
[7], 37 nM | – | 0.948
[7], 111.1 nM | – | 1.08
[7], 333.3 nM | – | 1.01
[7], 1000 nM | – | 0.829
[7], 3000 nM | – | 0.787
[8], 4.1 nM | 0.434 | –
[8], 12.3 nM | 0.591 | –
[8], 37 nM | 0.952 | –
[8], 111.1 nM | 0.719 | –
[8], 333.3 nM | 0.807 | –
[8], 1000 nM | 0.71 | –
[8], 3000 nM | 0.892 | –
[9], 4.1 nM | 0.639 | –
[9], 12.3 nM | 0.48 | –
[9], 37 nM | 0.312 | –
[9], 111.1 nM | 0.6 | –
[9], 333.3 nM | 0.27 | –
[9], 1000 nM | 0.663 | –
[9], 3000 nM | 1.33 | –
[10], 4.1 nM | 0.718 | –
[10], 12.3 nM | 0.644 | –
[10], 37 nM | 0.417 | –
[10], 111.1 nM | 0.495 | –
[10], 333.3 nM | 0.688 | –
[10], 1000 nM | 0.954 | –
[10], 3000 nM | 0.695 | –
[11], 4.1 nM | 0.731 | –
[11], 12.3 nM | 0.483 | –
[11], 37 nM | 0.639 | –
[11], 111.1 nM | 0.611 | –
[11], 333.3 nM | 0.715 | –
[11], 1000 nM | 0.918 | –
[11], 3000 nM | 1.46 | –
[12], 4.1 nM | 0.558 | –
[12], 12.3 nM | 0.535 | –
[12], 37 nM | 0.702 | –
[12], 111.1 nM | 0.614 | –
[12], 333.3 nM | 0.634 | –
[12], 1000 nM | 0.943 | –
[12], 3000 nM | 1.08 | –
[13], 4.1 nM | 0.709 | –
[13], 12.3 nM | 0.457 | –
[13], 37 nM | 0.46 | –
[13], 111.1 nM | 0.302 | –
[13], 333.3 nM | 0.722 | –
[13], 1000 nM | 0.606 | –
[13], 3000 nM | 1.69 | –
[14], 4.1 nM | 1.14 | –
[14], 12.3 nM | 1.57 | –
[14], 37 nM | 0.375 | –
[14], 111.1 nM | 0.556 | –
[14], 333.3 nM | 0.563 | –
[14], 1000 nM | 0.69 | –
[14], 3000 nM | 1.37 | –
